# US20020137929A1, “1 - (3-heterocyclylphenyl) isothiourea, -isourea, -guanidine and -amidine herbicidal agents” (Intellectual Property Department, BASF Aktiengesellschaft, priority 1998, published 2002)
# Columns and labels:
# [1] = tested on: ECHORC (Watergrass (Calif.)); assay: Preemergence weed control under flooded paddy conditions; assay type: in vivo, Echinochloa oryzoides; details: rated 3-4 weeks after treatment
# How it was run: (§1)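 First, seeds or propagules go into the top 0.5 cm of silt loam; next, water is held 1.5 to 3 cm over the soil; then compound (50/50 acetone/water) is pipetted into it at about 0.0313 to 0.500 kg/ha; finally plants are rated visually 0-9 after three to four weeks.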
# CYPSE (Flatsedge) = assay: as above; assay type: in vivo, Cyperus serotinus; details: rated 3-4 weeks after treatment
# How it was run: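 Silt loam, seeds in top 0.5 cm; flood held 1.5-3 cm; test cpd as acetone/water 50/50 into flood water, ~0.0313-0.500 kg/ha a.i.; greenhouse 3-4 wk; visual 0-9 score vs control.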
# CYPIR (Rice Flatsedge) = assay: as above; assay type: in vivo, Cyperus iria; details: rated 3-4 weeks after treatment
# How it was run: as §1
# [2] = tested on: TRZAWR (Wheat, Winter, cv Riband); assay: Preemergence herbicidal evaluation; assay type: in vivo, Triticum aestivum; details: rated 4-5 weeks after treatment
# How it was run: (§2)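 Steps: mix seeds into potting soil; plant atop ~1 inch soil; spray compound in aqueous acetone (~0.0156-0.500 kg/ha equivalent); maintain in greenhouse with watering; rate visually 0-9 versus control at 4-5 weeks.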
# ZEAMX (Corn, Field) [3] = assay: Preemergence herbicidal evaluation; assay type: in vivo, Zea mays; details: rated 4-5 weeks after treatment
# How it was run: as §2
# ORYSAT (Rice, Tebonnet) = assay: Postemergence herbicidal evaluation; assay type: in vivo, Oryza sativa, (L.) Tebonnet; details: postemergence
# How it was run: (§3)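 Visual 0–9 rating versus control (stand, vigor, malformation, size, chlorosis, overall appearance), taken four to five weeks post-spray. Two-week-old seedlings received roughly 0.0156–0.500 kg/ha active in acetone/water (50/50) with 0.5% TWEEN 20 via nozzle at 40 psi.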
# SETVI (Foxtail, Green) [4] = assay: Postemergence herbicidal evaluation; assay type: in vivo, Setaria viridis; details: postemergence
# How it was run: as §3
# ZEAMX (Corn, Field) [5] = assay: Postemergence herbicidal evaluation; assay type: in vivo, Zea mays; details: postemergence
# How it was run: as §3
# ECHCG (Barnyardgrass) = assay: Preemergence herbicidal evaluation; assay type: in vivo, Echinochloa crus-galli; details: rated 4-5 weeks after treatment
# How it was run: as §2
# SETVI (Foxtail, Green) [6] = assay: Preemergence herbicidal evaluation; assay type: in vivo, Setaria viridis; details: rated 4-5 weeks after treatment
# How it was run: as §2
structure (smiles),measurement,setting,value
"Cn1c(C(F)(F)F)cc(=O)n(-c2cc(N=C3SCC(=O)N3C3CCCC3)c(Cl)cc2F)c1=O [Compound 166, 3-{4-Chloro-5-[(3-cyclopentyl-4-oxo-2-thiazolidinylidene)amino]-2-fluorophenyl}-1-methyl-6-(trifluoromethyl)-2,4(1H,3H)-pyrimidinedione]","herbicidal effect rating, ECHORC",[1]; 0.0313 kg/ha,2.0
same,"herbicidal effect rating, ECHORC",[1]; 0.0625 kg/ha,2.0
same,"herbicidal effect rating, ECHORC",[1]; 0.1250 kg/ha,2.0
same,"herbicidal effect rating, ECHORC",[1]; 0.2500 kg/ha,4.0
same,"herbicidal effect rating, CYPSE",CYPSE (Flatsedge); 0.0313 kg/ha,0.0
same,"herbicidal effect rating, CYPSE",CYPSE (Flatsedge); 0.0625 kg/ha,0.0
same,"herbicidal effect rating, CYPSE",CYPSE (Flatsedge); 0.1250 kg/ha,0.0
same,"herbicidal effect rating, CYPSE",CYPSE (Flatsedge); 0.2500 kg/ha,0.0
same,"herbicidal effect rating, CYPIR",CYPIR (Rice Flatsedge); 0.0313 kg/ha,2.0
same,"herbicidal effect rating, CYPIR",CYPIR (Rice Flatsedge); 0.0625 kg/ha,2.0
same,"herbicidal effect rating, CYPIR",CYPIR (Rice Flatsedge); 0.1250 kg/ha,6.0
same,"herbicidal effect rating, CYPIR",CYPIR (Rice Flatsedge); 0.2500 kg/ha,9.0
same,Preemergence herbicidal rating TRZAWR,[2]; 0.0156 kg/ha,0.0
same,Preemergence herbicidal rating TRZAWR,[2]; 0.0313 kg/ha,0.0
same,Preemergence herbicidal rating TRZAWR,[2]; 0.0625 kg/ha,1.0
same,Preemergence herbicidal rating TRZAWR,[2]; 0.1250 kg/ha,1.0
same,Preemergence herbicidal rating TRZAWR,[2]; 0.2500 kg/ha,1.0
same,Preemergence herbicidal rating TRZAWR,[2]; 0.5000 kg/ha,3.0
same,Preemergence herbicidal rating ZEAMX,"ZEAMX (Corn, Field) [3]; 0.0156 kg/ha",0.0
same,Preemergence herbicidal rating ZEAMX,"ZEAMX (Corn, Field) [3]; 0.0313 kg/ha",0.0
same,Preemergence herbicidal rating ZEAMX,"ZEAMX (Corn, Field) [3]; 0.0625 kg/ha",1.0
same,Preemergence herbicidal rating ZEAMX,"ZEAMX (Corn, Field) [3]; 0.1250 kg/ha",1.0
same,Preemergence herbicidal rating ZEAMX,"ZEAMX (Corn, Field) [3]; 0.2500 kg/ha",3.0
same,Preemergence herbicidal rating ZEAMX,"ZEAMX (Corn, Field) [3]; 0.5000 kg/ha",6.0
same,Herbicidal rating ORYSAT,"ORYSAT (Rice, Tebonnet); rate 0.0156 kg/ha",1.0
same,Herbicidal rating ORYSAT,"ORYSAT (Rice, Tebonnet); rate 0.0313 kg/ha",0.5
same,Herbicidal rating ORYSAT,"ORYSAT (Rice, Tebonnet); rate 0.0625 kg/ha",1.5
same,Herbicidal rating ORYSAT,"ORYSAT (Rice, Tebonnet); rate 0.1250 kg/ha",2.0
same,Herbicidal rating SETVI,"SETVI (Foxtail, Green) [4]; rate 0.0156 kg/ha",0.0
same,Herbicidal rating SETVI,"SETVI (Foxtail, Green) [4]; rate 0.0313 kg/ha",0.0
same,Herbicidal rating SETVI,"SETVI (Foxtail, Green) [4]; rate 0.0625 kg/ha",1.0
same,Herbicidal rating SETVI,"SETVI (Foxtail, Green) [4]; rate 0.1250 kg/ha",2.0
same,Herbicidal rating ZEAMX,"ZEAMX (Corn, Field) [5]; rate 0.0156 kg/ha",3.0
same,Herbicidal rating ZEAMX,"ZEAMX (Corn, Field) [5]; rate 0.0313 kg/ha",3.0
same,Herbicidal rating ZEAMX,"ZEAMX (Corn, Field) [5]; rate 0.0625 kg/ha",3.5
same,Herbicidal rating ZEAMX,"ZEAMX (Corn, Field) [5]; rate 0.1250 kg/ha",4.5
same,Preemergence herbicidal rating ECHCG,ECHCG (Barnyardgrass); 0.0156 kg/ha,0.0
same,Preemergence herbicidal rating ECHCG,ECHCG (Barnyardgrass); 0.0313 kg/ha,0.0
same,Preemergence herbicidal rating ECHCG,ECHCG (Barnyardgrass); 0.0625 kg/ha,1.0
same,Preemergence herbicidal rating ECHCG,ECHCG (Barnyardgrass); 0.1250 kg/ha,0.0
same,Preemergence herbicidal rating ECHCG,ECHCG (Barnyardgrass); 0.2500 kg/ha,0.0
same,Preemergence herbicidal rating ECHCG,ECHCG (Barnyardgrass); 0.5000 kg/ha,4.0
same,Preemergence herbicidal rating SETVI,"SETVI (Foxtail, Green) [6]; 0.0156 kg/ha",0.0
same,Preemergence herbicidal rating SETVI,"SETVI (Foxtail, Green) [6]; 0.0313 kg/ha",0.0
same,Preemergence herbicidal rating SETVI,"SETVI (Foxtail, Green) [6]; 0.0625 kg/ha",1.0
same,Preemergence herbicidal rating SETVI,"SETVI (Foxtail, Green) [6]; 0.1250 kg/ha",6.0
same,Preemergence herbicidal rating SETVI,"SETVI (Foxtail, Green) [6]; 0.2500 kg/ha",6.0
same,Preemergence herbicidal rating SETVI,"SETVI (Foxtail, Green) [6]; 0.5000 kg/ha",9.0
